Reference: US6958221B2, “Cell flow apparatus and method for real-time measurements of patient cellular responses” (Caliper Life Sciences, Inc., priority 1996, dated 2005)
Where a SMILES comes first, the peptide text is derived from it. [ ]: non-standard residue; d: D form.

Target: T1, endothelin subtype A receptor ETAR (Homo sapiens, UniProt P25101)
T1 construct: TE-671 cells, human medulloblastoma (ATCC CRL 8805), naturally express endothelin subtype A receptor ETAR; host or cells: TE-671 human medulloblastoma cells
T1 sequence (P25101 21-427): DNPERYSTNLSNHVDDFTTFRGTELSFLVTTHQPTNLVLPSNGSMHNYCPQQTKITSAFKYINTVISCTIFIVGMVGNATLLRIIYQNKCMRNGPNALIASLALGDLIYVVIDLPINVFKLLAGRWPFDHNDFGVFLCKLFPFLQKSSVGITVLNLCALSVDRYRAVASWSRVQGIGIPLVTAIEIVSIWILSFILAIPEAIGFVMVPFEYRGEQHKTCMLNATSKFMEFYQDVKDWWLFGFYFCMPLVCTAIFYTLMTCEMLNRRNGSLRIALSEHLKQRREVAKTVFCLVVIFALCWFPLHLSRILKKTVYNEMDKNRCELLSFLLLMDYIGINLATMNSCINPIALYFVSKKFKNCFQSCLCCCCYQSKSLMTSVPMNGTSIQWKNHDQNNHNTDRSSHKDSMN
Assay: ET-1 induced intracellular calcium mobilization in TE-671 cells (flow apparatus, FURA-2)
Type: cell-based
Experimental: TE-671 cells, human medulloblastoma (ATCC CRL 8805), naturally express endothelin subtype A receptor ETAR.
The apparatus was a negative pressure computer controlled unit as described above. This run was performed in the presence of several concentrations of ETAR specific competitive antagonist BQ-123 (shown in nanomolar concentration).
TE-671 cells were prepared for use in the cell physiometer of the present invention by growing them in a T75 flask until confluence. The growth media was decanted and the cells were washed twice with Dulbecco's phosphate buffered saline (DPBS) and supplemented with a fresh DPBS containing 2 μM FURA-2AM, which easily penetrates into cell cytoplasm and is hydrolyzed there with nonspecific esterases to form FURA 2, a dye which is sensitive to the ionized form of calcium. After 30 min incubation, the cells were supplemented with the equal volume of fresh DPBS and incubated for further 30 min. The cells, now loaded with the dye, were detached from the flask bottom with 0.05% Trypsin-EDTA solution. The cells were then washed twice with DPBS, containing 0.1% soybean trypsin inhibitor, and resuspended in calcium-free, magnesium-free and phenol red-free Dulbecco's modified Eagle's medium (DMEM).
This gives three fold final dilution for each component of the flow passing through mixing zone 343 and eventually, detector 355. The proportioning valve 327, was programmed for the first, second and third runs to give final BQ-123 concentration of zero, 10 nM and 40 nM, respectively.
The flow rate and the length of the reaction developing line were chosen so that the time interval from the point of mixing the cells with the compound to the point of signal detection in the flow-through optical cell was 40 seconds.

CC(C)C[C@@H]1NC(=O)[C@@H](C(C)C)NC(=O)[C@@H]2CCCN2C(=O)[C@@H](CC(=O)O)NC(=O)[C@@H](Cc2c[nH]c3ccccc23)NC1=O [BQ-123] (cyclo(L[dW][dD]P[dV]))
Kb: 11 nM | type of inhibition (shift of ET-1 activation curves) (TE-671 cells, activation curves parallel shifted to the right in the presence of BQ-123): competitive type of inhibition | Ki (TE-671 cells, corresponds to the pA2 value, read-out: inhibition constant, K1): 11 nM
